The results in this text go back to US20250353856A1, “COMPOUND ACTIVE AS INHIBITOR OF COLONY STIMULATION FACTOR-1 RECEPTOR (CSF-1R)” (Norwegian University of Science and Technology (NTNU), priority 2022, published 2025).

Like-named read-outs stand apart in the source and are kept apart here.

One assay has as its target CSF1R enzyme (Homo sapiens (Human), UniProt P07333). Put plainly: CSF1R enzymatic inhibitory assay (Z'-LYTE, FRET). It is filed as biochemical. The following applies: Z'-LYTE assay platform, 10-point titrations in duplicates, ATP equal to Km.
Assay [1] has as its target CSF1R in bone-marrow derived macrophages from mice (Mus musculus (Mouse), UniProt P09581). Put plainly: Effect of CSF1R inhibitors on MAPK signalling in mouse bone-marrow derived macrophages. It is filed as cell-based. The following applies: for BMDM fold relative to PLX3397: Fold change: IC50 inhibitor/IC50 PLX3397, mouse BMDM.

Sequence of CSF1R enzyme (P07333 20-972): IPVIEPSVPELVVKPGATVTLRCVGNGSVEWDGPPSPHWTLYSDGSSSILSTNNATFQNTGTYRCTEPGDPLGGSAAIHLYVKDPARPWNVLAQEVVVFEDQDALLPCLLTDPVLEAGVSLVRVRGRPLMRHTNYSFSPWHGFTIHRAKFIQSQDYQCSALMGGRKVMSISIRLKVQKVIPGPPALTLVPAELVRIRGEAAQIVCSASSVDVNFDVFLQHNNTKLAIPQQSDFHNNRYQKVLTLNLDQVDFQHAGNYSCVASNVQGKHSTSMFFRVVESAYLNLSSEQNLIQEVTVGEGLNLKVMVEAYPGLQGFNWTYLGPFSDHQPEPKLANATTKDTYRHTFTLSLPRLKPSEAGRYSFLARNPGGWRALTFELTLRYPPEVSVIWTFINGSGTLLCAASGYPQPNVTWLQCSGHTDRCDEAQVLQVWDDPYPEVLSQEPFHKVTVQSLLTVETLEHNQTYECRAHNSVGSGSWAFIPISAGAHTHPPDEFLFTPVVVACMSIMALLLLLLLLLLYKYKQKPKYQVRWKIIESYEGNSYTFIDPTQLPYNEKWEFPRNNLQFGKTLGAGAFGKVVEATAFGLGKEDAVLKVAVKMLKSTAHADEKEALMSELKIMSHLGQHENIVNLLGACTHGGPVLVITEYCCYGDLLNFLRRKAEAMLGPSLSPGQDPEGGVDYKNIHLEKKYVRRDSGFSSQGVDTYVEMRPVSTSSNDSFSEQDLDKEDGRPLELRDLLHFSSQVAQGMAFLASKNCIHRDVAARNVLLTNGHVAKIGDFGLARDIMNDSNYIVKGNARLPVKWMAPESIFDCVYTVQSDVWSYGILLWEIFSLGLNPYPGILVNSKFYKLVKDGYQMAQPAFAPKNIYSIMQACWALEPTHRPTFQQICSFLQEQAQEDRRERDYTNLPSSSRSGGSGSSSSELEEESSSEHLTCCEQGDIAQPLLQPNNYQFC
Sequence of CSF1R in bone-marrow derived macrophages from mice (P09581 20-977): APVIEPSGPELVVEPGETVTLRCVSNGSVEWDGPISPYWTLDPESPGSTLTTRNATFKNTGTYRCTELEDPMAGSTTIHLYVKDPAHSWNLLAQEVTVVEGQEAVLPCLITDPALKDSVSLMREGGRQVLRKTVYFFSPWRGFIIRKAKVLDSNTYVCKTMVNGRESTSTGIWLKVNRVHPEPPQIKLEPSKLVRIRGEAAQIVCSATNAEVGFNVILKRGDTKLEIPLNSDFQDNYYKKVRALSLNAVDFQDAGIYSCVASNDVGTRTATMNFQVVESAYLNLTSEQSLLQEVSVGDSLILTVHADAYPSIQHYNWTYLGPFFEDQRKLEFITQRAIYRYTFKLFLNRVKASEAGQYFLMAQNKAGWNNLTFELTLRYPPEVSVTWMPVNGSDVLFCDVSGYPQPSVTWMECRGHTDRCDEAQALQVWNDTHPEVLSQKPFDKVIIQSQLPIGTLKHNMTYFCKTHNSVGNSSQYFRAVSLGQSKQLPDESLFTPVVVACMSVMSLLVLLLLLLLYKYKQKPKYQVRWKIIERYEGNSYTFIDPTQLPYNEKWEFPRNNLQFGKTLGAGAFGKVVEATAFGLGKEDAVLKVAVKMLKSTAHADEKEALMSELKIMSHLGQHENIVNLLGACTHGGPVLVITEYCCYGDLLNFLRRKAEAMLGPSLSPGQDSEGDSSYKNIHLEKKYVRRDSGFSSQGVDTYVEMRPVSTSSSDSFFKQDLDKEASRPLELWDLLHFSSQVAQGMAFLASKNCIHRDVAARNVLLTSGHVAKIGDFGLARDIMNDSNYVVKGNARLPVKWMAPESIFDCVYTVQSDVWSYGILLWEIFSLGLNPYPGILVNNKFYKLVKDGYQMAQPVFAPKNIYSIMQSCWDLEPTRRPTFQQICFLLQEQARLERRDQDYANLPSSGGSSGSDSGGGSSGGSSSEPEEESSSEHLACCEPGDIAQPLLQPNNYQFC

In general, IC50 refers to the concentration needed to halve the response being measured. On to `Cc1ccc(Cc2ncnc3[nH]c(-c4ccc(CO)cc4)cc23)cc1` [Compound 5e, (4-(4-(4-Methylbenzyl)-7H-pyrrolo[2,3-d]pyrimidin-6-yl)phenyl)methanol], for which the results for the IC50 (on CSF1R enzyme; in assay [1] (read-out: BMDM IC50)) were 1 nM and over 300 nM, respectively. The “BMDM fold relative to PLX3397” value in assay [1] is on record as over 3 fold.
`c1ccc(Cc2ncnc3[nH]c(-c4ccccc4)cc23)cc1` [Compound 15, 4-Benzyl-6-phenyl-7H-pyrrolo[2,3-d]pyrimidine] showed an IC50 against CSF1R enzyme of 7.2 nM.
As for `CS(=O)(=O)Nc1ccc(-c2cc3c(Cc4ccccc4)ncnc3[nH]2)cc1` [Compound 14, N-(4-(4-Benzyl-7H-pyrrolo[2,3-d]pyrimidin-6-yl)phenyl)methanesulfonamide], the IC50 against CSF1R enzyme is 2.1 nM.
The same measure, in the same setting: for `CP(C)(=O)c1ccc(-c2cc3c(Cc4ccccc4)ncnc3[nH]2)cc1` [Compound 19, (4-(4-Benzyl-7H-pyrrolo[2,3-d]pyrimidin-6-yl)phenyl)dimethylphosphine oxide] the value was 1.5 nM.
Turning to `OCc1ccc(-c2cc3c(Cc4ccccc4F)ncnc3[nH]2)cc1` [Compound 5b, (4-(4-(2-Fluorobenzyl)-7H-pyrrolo[2,3-d]pyrimidin-6-yl)phenyl)methanol], the IC50 came to 0.7 nM against CSF1R enzyme and 487 nM in assay [1] (read-out: BMDM IC50). In addition, the “BMDM fold relative to PLX3397” value in assay [1] came out at 5 fold.
On CSF1R enzyme, `CC(C)n1cc(-c2cc3c(Cc4ccccc4)ncnc3[nH]2)cn1` [Compound 17, 4-Benzyl-6-(1-isopropyl-1H-pyrazol-4-yl)-7H-pyrrolo[2,3-d]pyrimidine] had an IC50 of 2 nM.
Consider `Cc1nn(C)cc1-c1cc2c(Cc3ccccc3)ncnc2[nH]1` [Compound 18, 4-Benzyl-6-(1,3-dimethyl-1H-pyrazol-4-yl)-7H-pyrrolo[2,3-d]pyrimidine], for which the IC50 at CSF1R enzyme was 0.4 nM.
For `CCC(c1ccccc1)c1ncnc2[nH]c(-c3ccc(CO)cc3)cc12` (centres unmarked) [Compound 5j, (4-(4-(1-Phenylpropyl)-7H-pyrrolo[2,3-d]pyrimidin-6-yl)phenyl)methanol], the IC50 is 29 nM against CSF1R enzyme and over 500 nM in assay [1] (read-out: BMDM IC50). Further, in assay [1], the “BMDM fold relative to PLX3397” value is over 5 fold.
On to `OCc1ccc(-c2cc3c(Cc4ccc(F)cc4)ncnc3[nH]2)cc1` [Compound 5d, (4-(4-(4-Fluorobenzyl)-7H-pyrrolo[2,3-d]pyrimidin-6-yl)phenyl)methanol], for which the IC50 is 3.1 nM on CSF1R enzyme and 320 nM in assay [1] (read-out: BMDM IC50). Further, the “BMDM fold relative to PLX3397” value in assay [1] is given as 4.1 fold.
For the compound `COc1ccc(-c2cc3c(Cc4ccccc4)ncnc3[nH]2)cc1` [Compound 10, 4-Benzyl-6-(4-methoxyphenyl)-7H-pyrrolo[2,3-d]pyrimidine], the IC50 against CSF1R enzyme was 11 nM.
For the compound `OCc1ccc(-c2cc3c(Cc4ccc(C(F)(F)F)cc4)ncnc3[nH]2)cc1` [Compound 5h, (4-(4-(4-(Trifluoromethyl)benzyl)-7H-pyrrolo[2,3-d]pyrimidin-6-yl)phenyl)methanol], the values for the IC50 (at CSF1R enzyme; in assay [1] (read-out: BMDM IC50)) were 3.6 nM and over 500 nM, respectively. In assay [1], the “BMDM fold relative to PLX3397” value was over 5 fold.
Take `CC(C)(C)c1ccc(Cc2ncnc3[nH]c(-c4ccc(CO)cc4)cc23)cc1` [Compound 5g, (4-(4-(4-(tert-Butyl)benzyl)-7H-pyrrolo[2,3-d]pyrimidin-6-yl)phenyl)methanol]: the IC50 at CSF1R enzyme was 1.6 nM; in assay [1] (read-out: BMDM IC50), 174 nM. In addition, the “BMDM fold relative to PLX3397” value in assay [1] is reported as 1.7 fold.
On CSF1R enzyme, `CNS(=O)(=O)c1ccc(-c2cc3c(Cc4ccccc4)ncnc3[nH]2)cc1` [Compound 16, 4-(4-Benzyl-7H-pyrrolo[2,3-d]pyrimidin-6-yl)-N-methylbenzenesulfonamide] came in with an IC50 of 1.7 nM.
Compound `FC(F)(F)c1ccc(CNc2ccc(Cc3c[nH]c4ncc(Cl)cc34)cn2)cn1` [PLX3397, reference compound] showed a 50% inhibitory concentration (IC50) in assay [1] of 70 to 150 nM.
Regarding `CC(C)c1ccc(Cc2ncnc3[nH]c(-c4ccc(CO)cc4)cc23)cc1` [Compound 5f, (4-(4-(4-Isopropylbenzyl)-7H-pyrrolo[2,3-d]pyrimidin-6-yl)phenyl)methanol], the results for the half-maximal inhibitory concentration (IC50) (at CSF1R enzyme; in assay [1] (read-out: BMDM IC50)) were 0.6 nM and 71 nM, respectively. In assay [1], the “BMDM fold relative to PLX3397” value amounted to 0.8 fold.
For `CC(c1ccccc1)c1ncnc2[nH]c(-c3ccc(CO)cc3)cc12` (centres unmarked) [Compound 5i, (4-(4-(1-Phenylethyl)-7H-pyrrolo[2,3-d]pyrimidin-6-yl)phenyl)methanol] the same measures were 3.8 nM, over 500 nM and over 5 fold.
With `OCc1ccc(-c2cc3c(Cc4cccc(F)c4)ncnc3[nH]2)cc1` [Compound 5c, (4-(4-(3-Fluorobenzyl)-7H-pyrrolo[2,3-d]pyrimidin-6-yl)phenyl)methanol], the IC50 was 1.9 nM against CSF1R enzyme and over 500 nM in assay [1] (read-out: BMDM IC50). The “BMDM fold relative to PLX3397” value in assay [1] was over 5 fold.
For `OCc1ccc(-c2cc3c(Oc4ccccc4)ncnc3[nH]2)cc1` [Compound 9, (4-(4-Phenoxy-7H-pyrrolo[2,3-d]pyrimidin-6-yl)phenyl)methanol] the same measures were 1.5 nM, 107 nM and 1 fold.
The matching figures for `OCc1ccc(-c2cc3c(C(F)c4ccccc4)ncnc3[nH]2)cc1` (centres unmarked) [Compound 5k, (4-(4-(Fluoro(phenyl)methyl)-7H-pyrrolo[2,3-d]pyrimidin-6-yl)phenyl)methanol]: 2.7 nM, 100 nM and 1.3 fold.
For `OCc1ccc(-c2cc3c(Cc4ccccc4)ncnc3[nH]2)cc1` [Compound 5a, (4-(4-Benzyl-7H-pyrrolo[2,3-d]pyrimidin-6-yl)phenyl)methanol] the same measures were 1.3 nM, 130 nM and 1 fold.
